Data taken from ChEMBL document CHEMBL4627327, “Antibacterial activity of singly and doubly modified salinomycin derivatives” (Bioorg Med Chem Lett, 2020).
The source made the active and inactive calls. No cut-off for these calls is given here.

How the values were obtained:
[1] = tested on: Pseudomonas aeruginosa; experiment: Antibacterial activity against Pseudomonas aeruginosa ATCC 15442 assessed as bacterial growth inhibition measured after 18 hrs by CLSI protocol based two-fold serial microdilution method; format: functional, organism-based
[2] = tested on: Pseudomonas aeruginosa; experiment: Antibacterial activity against Pseudomonas aeruginosa ATCC 27853 assessed as bacterial growth inhibition measured after 18 hrs by CLSI protocol based two-fold serial microdilution method; format: functional, organism-based
[3] = tested on: Escherichia coli; experiment: Antibacterial activity against Escherichia coli NCTC 8196 assessed as bacterial growth inhibition measured after 18 hrs by CLSI protocol based two-fold serial microdilution method; format: functional, organism-based
[4] = tested on: Escherichia coli; experiment: Antibacterial activity against Escherichia coli ATCC 25922 assessed as bacterial growth inhibition measured after 18 hrs by CLSI protocol based two-fold serial microdilution method; format: functional, organism-based
[5] = tested on: Staphylococcus epidermidis; experiment: Inhibition of biofilm formation in Staphylococcus epidermidis ATCC 35984 at 1 to 8 ug/ml measured after 24 hrs by crystal violet staining based assay; format: functional, organism-based
[6] = tested on: Staphylococcus epidermidis; experiment: Inhibition of biofilm formation in Staphylococcus epidermidis ATCC 12228 at 1 to 8 ug/ml measured after 24 hrs by crystal violet staining based assay; format: functional, organism-based
[7] = Genotoxicity in rec negative Bacillus subtilis M45 assessed as diameter of inhibition zone at 256 ug measured after 24 hrs by rec-assay; format: toxicity; details: in vivo
[8] = Genotoxicity in rec-positive Bacillus subtilis H17 assessed as diameter of inhibition zone at 256 ug measured after 24 hrs by rec-assay; format: toxicity; details: in vivo

For `C#CCOC(=O)[C@H](CC)[C@H]1CC[C@H](C)[C@H]([C@@H](C)[C@H](O)[C@H](C)C(=O)[C@H](CC)[C@H]2O[C@]3(C=C[C@@H](O)[C@]4(CC[C@@](C)([C@H]5CC[C@](O)(CC)[C@H](C)O5)O4)O3)[C@H](C)C[C@@H]2C)O1`, the Activity [1] was “inactive”, the Activity [2] was “inactive” and the Activity [3] was “inactive”. For the same compound, the Activity [4] was “inactive”.
For `CC[C@@H](C(=O)[C@@H](C)[C@@H](O)[C@H](C)[C@@H]1O[C@@H]([C@@H](CC)C(=O)OCC(F)(F)F)CC[C@@H]1C)[C@H]1O[C@]2(C=CC(=O)[C@]3(CC[C@@](C)([C@H]4CC[C@](O)(CC)[C@H](C)O4)O3)O2)[C@H](C)C[C@@H]1C`, the Activity [1] was “inactive”, the Activity [2] was “inactive” and the Activity [3] was “inactive”. For the same compound, the Activity [4] was “inactive”.
In the case of `O=C(O)c1cn(C2CC2)c2cc(N3CCNCC3)c(F)cc2c1=O`, the inhibition [5] is reported as “Active” and the inhibition [6] is reported as “Active”.
For `C#CCOC(=O)[C@H](CC)[C@H]1CC[C@H](C)[C@H]([C@@H](C)[C@H](O)[C@H](C)C(=O)[C@H](CC)[C@H]2O[C@]3(C=CC(=O)[C@]4(CC[C@@](C)([C@H]5CC[C@](O)(CC)[C@H](C)O5)O4)O3)[C@H](C)C[C@@H]2C)O1`, the Activity [1] was “inactive”, the Activity [2] was “inactive” and the Activity [3] was “inactive”. For the same compound, the Activity [4] was “inactive”.
For `CC[C@@H](C(=O)[C@@H](C)[C@@H](O)[C@H](C)[C@@H]1O[C@@H]([C@@H](CC)C(=O)NCC(F)(F)F)CC[C@@H]1C)[C@H]1O[C@]2(C=CC(=O)[C@]3(CC[C@@](C)([C@H]4CC[C@](O)(CC)[C@H](C)O4)O3)O2)[C@H](C)C[C@@H]1C`, the Activity [1] was “inactive”, the Activity [2] was “inactive” and the Activity [3] was “inactive”. For the same compound, the Activity [4] was “inactive”.
In the case of `O=[N+]([O-])c1cc[n+]([O-])c2ccccc12` [4-NITROQUINOLINE-1-OXIDE], the “diameter of the inhibition zone (DIZ)” value [7] is reported as 34 mm and the “diameter of the inhibition zone (DIZ)” value [8] is reported as 22 mm.
In the case of `C#CCNC(=O)[C@H](CC)[C@H]1CC[C@H](C)[C@H]([C@@H](C)[C@H](O)[C@H](C)C(=O)[C@H](CC)[C@H]2O[C@]3(C=C[C@@H](O)[C@]4(CC[C@@](C)([C@H]5CC[C@](O)(CC)[C@H](C)O5)O4)O3)[C@H](C)C[C@@H]2C)O1`, the Activity [1] is reported as “inactive”, the Activity [2] is reported as “inactive” and the Activity [3] is reported as “inactive”. For the same compound, the Activity [4] was “inactive”.
